# Measured values: patent US7794723B2, “Antigenic peptides derived from telomerase” (GemVax AS, priority 1998, dated 2010)
# Where no end group is shown, it is not given here.
# How the values were obtained:
# [1] = system: peripheral blood T cells from a patient with colon cancer; assay: In vitro stimulation of peripheral blood T cells from a cancer patient, T cell proliferative assay (3H-thymidine); assay type: cell-based, human; settings: FIG. 2; peptide 30 μg/ml; 10^5 mononuclear cells; cultures without peptide as control
# Description: In vitro culture was performed as follows: Triplicates of 105 mononuclear cells were incubated for […] in X-VIVO 10 medium supplemented with 15% pooled heat inactivated human serum in a humidified incubator in 5% CO2. Peptides were present throughout culture at a final concentration of 30 μg/ml in the medium. Cultures without peptide served as control. […] Furthermore, one component of the telomerase specific response in this patient is directed against the peptide with SEQ ID NO:4 described here. […] The figure depicts the results of conventional T cell proliferative assays, where peripheral blood mononuclear cells (10^5) were cultured with peptides as indicated for 7 days in triplicates before harvesting. To measure the proliferative capacity of the cultures, 3H-thymidine (3.7×10^4 Bq/well) was added to the culture overnight before harvesting. Values are given as mean counts per minute (cpm) of the triplicates.
# [2] = system: hTERT expressing target cells (Jurkat) transfected with HLA-A2 (A2/K^b); settings: FIG. 1; T cells from mice primed with the peptide; target cells pulsed with control peptide (influenza 58-66); different effector to target ratios; 4 hours
# [3] = system: tumor infiltrating lymphocytes (TILs) obtained from a patient with advanced pancreatic cancer; assay: Reactivity of tumor infiltrating lymphocytes (TILs), standard proliferation assay; assay type: cell-based, human; settings: CD3+, CD4+, CD8− T cell line
# Text: FIGS. 3 and 4 (FIG. 3 and FIG. 4) show the reactivity of tumor infiltrating lymphocytes (TILs) obtained from a patient with advanced pancreatic cancer. The T cells were obtained from a tumor biopsy and were successfully propagated in vitro to establish a T cell line. The T cell line was CD3+, CD4+ and CD8−, and proliferated specifically in response to the telomerase peptides. The results in FIG. 3 show T cells that recognize the peptides with SEQ ID NOs: 2 and 3 when compared to controls with medium alone. The results in FIG. 4 show T cells that recognize the peptide with SEQ ID NO:2. The TILs were expanded by co-culturing with recombinant human interleukin 2 (rIL-2) and tested after 14 days in standard proliferation assay using peptides with SEQ ID NOs: 2, 3, 4 and 7.
# [4] = FIG. 3, compared to controls with medium alone
sequence,measurement,setting,value
GVPEYGCVVNLRKVVNF (GVPEYGCVVNLRKTVVNF) [SEQ ID NO:4],"proliferative response of T cells (3H-thymidine, mean cpm)",[1],proliferative response above background values
ILAKFLHWL [SEQ ID NO:9],specific cytotoxicity (killing of HLA-A2 transfected Jurkat cells),[2],Specific cytotoxicity above background was observed at all effector to target ratios
DGLRPIVNMDYVVGAR [SEQ ID NO:3],recognition of peptide by TIL T cells (proliferation),[3]; [4],recognize
EARPALLTSRLRFIPK [SEQ ID NO:2],recognition of peptide by TIL T cells (proliferation),[3]; [4],recognize
same,recognition of peptide by TIL T cells (proliferation),[3]; FIG. 4,recognize
